The procedure of data set [1]: The rotation number of the stirrer was 120 rpm, and all of the tests were conducted in a thermostat at 37±0.5° C. Two types of test solutions, namely, distilled water and 2nd fluid for disintegration test (pH 6.8) of the Japanese Pharmacopoeia were used. As such 2nd fluid for disintegration test of the Japanese Pharmacopoeia, a solution prepared by diluting the 10-fold concentration solution of Kanto Kagaku Co., Ltd. with distilled water was used.
A comparative test was carried out in the same manner as that described above with the exception that a poorly-soluble substance or the like was used in an amount equal to that of a substance with improved aqueous solubility, instead of the substance with improved aqueous solubility.
1 mL of the solution was sampled in an Eppendorf centrifuge tube, 1, 3, 10, 30, 60, 180 and 360 minutes after initiation of the test. The thus sampled solution was centrifuged at 12,000 rpm for 5 minutes. […] In the case of the comparative test, the poorly-soluble substance or the like, which had not been dissolved in the solution, was removed. An aliquot of this supernatant was immediately frozen. The frozen sample was freeze-dried, and it was then used as a sample in the measurement of the amount of the substance with improved aqueous solubility, which had been dissolved in the test solution. The dissolved poorly-soluble substance was measured mainly using a dual wavelength absorption photometer.
Moreover, a comparative test was carried out using silica fume instead of the calcium compound microparticles. Specifically, a coating treatment was carried out according to the same method as that described in the above section “6-1.

Data set [2] is described as follows: Dissolution test of poorly-soluble substances using distilled water. It counts as physicochemical.
Data set [3] is described as follows: Dissolution test of poorly-soluble substances using 2nd fluid for disintegration test (pH 6.8) of the Japanese Pharmacopoeia. It counts as physicochemical.
Protocol: From initiation of the test, the mixed solution was stirred with a stirrer having a length of 15 mm. The rotation number of the stirrer was 120 rpm, and all of the tests were conducted in a thermostat at 37±0.5° C. Two types of test solutions, namely, distilled water and 2nd fluid for disintegration test (pH 6.8) of the Japanese Pharmacopoeia were used. As such 2nd fluid for disintegration test of the Japanese Pharmacopoeia, a solution prepared by diluting the 10-fold concentration solution of Kanto Kagaku Co., Ltd. with distilled water was used.

SMILES strings stand for the structures.

As to `CC/C=C\C/C=C\C/C=C\C/C=C\C/C=C\CCCC(=O)OCC` [ethyl icosapentate], the solubility-improving effect entry in data set [1] was “a solubility-improving effect was obtained”.

Consider `O=C(Nc1ccc(Cl)cc1)Nc1ccc(Cl)c(Cl)c1` [10-1, Trichlorocarbanilide], for which the solubility-improving effect entry in data set [1] is “a solubility-improving effect was obtained”. For the same compound, the Dissolved amount in data set [2] (Dissolution test using water, elution time 1 min) stood at 0.0 µg/mL; in data set [2] (Dissolution test using water, elution time 3 min) it was 0.1 µg/mL; in data set [2] (Dissolution test using water, elution time 10 min), 0.4 µg/mL; in data set [2] (Dissolution test using water, elution time 30 min), 0.4 µg/mL; in data set [2] (Dissolution test using water, elution time 60 min), 0.4 µg/mL; in data set [2] (Dissolution test using water, elution time 180 min), 0.5 µg/mL. Further, the Dissolved amount in data set [2] (Dissolution test using water, elution time 360 min) turned out to be 0.6 µg/mL; in data set [2] (Distilled water, trichlorocarbanilide, elution time not printed in Table 13), 0.6 µg/mL; in data set [3] (2nd fluid for disintegration test, elution time 1 min), 0.0 µg/mL; in data set [3] (2nd fluid for disintegration test, elution time 3 min), 0.3 µg/mL; in data set [3] (2nd fluid for disintegration test, elution time 10 min) it was 0.6 µg/mL; in data set [3] (2nd fluid for disintegration test, elution time 30 min) it was 0.8 µg/mL. For the same compound, the Dissolved amount was 1.1 µg/mL in data set [3] (2nd fluid for disintegration test, elution time 60 min); 1.3 µg/mL in data set [3] (2nd fluid for disintegration test, elution time 180 min); 1.5 µg/mL in data set [3] (2nd fluid for disintegration test, elution time 360 min); 1.5 µg/mL in data set [3] (Second disintegration test medium, trichlorocarbanilide, elution time not printed in Table 13).

These data come from patent publication US9023398B2, “Method for improving the aqueous solubility of poorly-soluble substances” (Kabushiki Kaisha Sangi, priority 2009, dated 2015).
